Measured values reported in article PMC8347307, “Preclinical Bioavailability, Tissue Distribution, and Protein Binding Studies of Erinacine A, a Bioactive Compound from Hericium erinaceus Mycelia Using Validated LC-MS/MS Method” (Molecules, 2021).
“And” between values parts separate entries of the source, which are not always exact repeats. Identical values can stand only once. Like-named read-outs stand apart in the source and are kept apart here.

How the values were obtained:
[1] = Protein binding in diluted (4×) tissue homogenates by rapid equilibrium dialysis; assay type: in vitro ADME, Sprague-Dawley rats; conditions: Sprague-Dawley, rat, 200 ng/mL, 37 °C, 4 h
Experimental: (§1) Then, the protein binding of erinacine A in the plasma and diluted (4×) tissue homogenates (brain, heart, lung, liver, kidney, stomach, large intestine, and small intestine) was determined by rapid equilibrium dialysis devices with 8000 Da molecular weight cut-off (#89809, Thermo Fisher Scientific, Waltham, MA, USA) according to manufacturer’s guidelines. In brief, the stock solution of erinacine A prepared in methanol was spiked into blank plasma and tissues to yield a final concentration of 200 ng/mL. Two hundred microliter aliquot of spiked samples were then dialysed against 350 µL aliquot of isotonic phosphate buffered saline at 37 °C on an orbital shaker at 250 rpm for 4 h. The resulting sample and buffer dialysates were removed from the chambers, matched with an equal volume of opposite blank matrix, and analyzed by LC-MS/MS. The protein binding of erinacine A is determined by the following Equations (1) and (2):% Free = (concentration at buffer chamber/concentration at sample chamber) × 100%(1) % Bound = 100% − % Free(2)

[2] = system: diluted (4×) tissue homogenates; test: as above; assay type: in vitro ADME, Sprague-Dawley rats; conditions: calculated from protein binding assay with equation of ref 36
Experimental: as §1

rat plasma = test: Protein binding in plasma by rapid equilibrium dialysis; assay type: in vitro ADME, Sprague-Dawley rats
Experimental: as §1

[3] = system: transient focal cerebral ischemia; parameters: method as in PMID 25167134; conditions: rat, intraperitoneal 1 mg/kg during the 5 days before onset of ischemia; cited from earlier work
[4] = Tissue distribution study after single oral administration; assay type: in vivo, Sprague-Dawley rats; conditions: for Tmax / concentration at 4 h: Sprague-Dawley, rat
Experimental: The homogenates (100 μL) were then mixed with equal volume of internal standard 2,4,5-TMBA (final concentration 25 ng/mL) and 300 μL of ethyl acetate. The mixture was vortexed and centrifuged at 13,845× g for 3 min. The supernatant was removed and the residue was reconstituted with isovolumetric acetonitrile for LC-MS/MS analysis.

[5] = rat, in vivo, iv, 5 mg/kg
[6] = Stability in plasma and tissues at 37 °C for 4 h; assay type: in vitro ADME, Sprague-Dawley rats; conditions: data not shown
[7] = system: insoluble β amyloid and C-terminal fragment of amyloid precursor protein; parameters: method as in PMID 29463001; conditions: cited from earlier work
[8] = system: nerve growth factor (NGF); parameters: method as in doi:10.1016/S0040-4039(00)76760-8; conditions: in vitro; cited from earlier work
[9] = Pharmacokinetic study, erinacine A in rat plasma after oral and intravenous administration; assay type: in vivo, Sprague-Dawley rats
Experimental: Analysis of erinacine A concentration in samples was conducted by Agilent 1100 series HPLC system (Agilent, Waldbronn, Germany) equipped with a G1376A capillary pump and a G1313A autosampler. Chromatographic separation was carried out in an Agilent Eclipse XDB-C18 column (3.5 µm, 4.6 × 100 mm) at 25 °C. The mobile phase consists of water (A) and acetonitrile (B) with gradient elution program as follows: 0 min, 70% B; 0–5 min, 70–100% B; 5–8 min, 100% B; 8–8.1 min, 100–70% B; 8.1–11 min, 70% B. The flow rate was 0.35 mL/min and injection volume was 10 μL. Mass spectrometric detection was conducted on an API 3000 triple quadrupole instrument (Applied Biosystems, Vaughan, ON, Canada) in multiple reaction monitoring (MRM) mode with parameters as follows: nebulizer gas, 10 psi; collision gas, 2 psi; curtain gas, 7 psi; source voltage, 4.5 kV; source temperature, 275 °C. A turbo ionspray electrospray ionization (ESI) interface in positive ionization mode was used (Applied Biosystem, Foster City, CA, USA). The specific precursor to product ion transitions is [M+H] 433 → 301 for erinacine A and 197 → 169 for 2,4,5-TMBA (internal standard). Data analysis was performed with Analyst 1.4.2 software (Applied Biosystems, Concord, ON, Canada).
Before intravenous administration, animals were anesthetized with Avertin (2,2,2-Tribromoethanol, 0.071 M). Blood was collected into heparinized microtubes at scheduled time points and centrifuged at 2404× g for 10 min. The plasma (100 μL) was then mixed with equal volume of internal standard 2,4,5-TMBA (final concentration 25 ng/mL) and 300 μL of ethyl acetate. The mixture was vortexed and centrifuged at 13,845× g for 3 min. The supernatant was removed and the residue was reconstituted with isovolumetric acetonitrile for LC-MS/MS analysis. All animal procedures were approved by the Animal Care and Use Committee of Shih Chien University (IACUC#10405).
All experimental data were presented as mean ± standard deviation (mean ± SD). Maximal plasma concentration (Cmax), and time taken to achieve maximal plasma concentration (Tmax), half-life (T1/2), and area under the plasma concentration − time curve (AUC) were assessed on each animal using the software of WinNonlin (Pharsight Corp., Mountain View, CA, USA) by the non-compartmental model. Applying the pharmacokinetic data of oral administration (po) and intravenous administration (iv), the absolute bioavailability of erinacine A was calculated as [(AUCpo × Doseiv)/(AUCiv × Dosepo)] × 100%.

DLD-1 xenografts = system: DLD-1 xenografts; parameters: method as in doi:10.1016/j.jff.2015.12.031, PMID 31680958; conditions: nude mice; cited from earlier work
[10] = system: nerve growth factor (NGF); parameters: method as in doi:10.1016/j.nutres.2005.06.001; conditions: rats, 8 mg/kg BW for 5 weeks from birth; cited from earlier work
[11] = Excretion study, feces and urine, after single oral administration; assay type: in vivo, Sprague-Dawley rats
Experimental: […] Feces were freeze-dried and grinded before mixing with equal volume of internal standard 2,4,5-TMBA (final concentration 25 ng/mL) and 300 μL of ethyl acetate. Urines were mixed with equal volume of internal standard 2,4,5-TMBA (final concentration 25 ng/mL) and 300 μL of ethyl acetate. The mixture was vortexed and centrifuged at 13,845× g for 3 min. The supernatant was removed and the residue was reconstituted with isovolumetric acetonitrile for LC-MS/MS analysis.

[12] = system: DLD-1 colorectal adenocarcinoma cells; parameters: method as in doi:10.1016/j.jff.2015.12.031, PMID 31680958; conditions: in vitro; cited from earlier work
[13] = parameters: method as in PMID 31022946; conditions: rats, cited from earlier work
[14] = male, Sprague-Dawley, iv, rat plasma, I.V. erinacine A 5 mg/kg
[15] = male, Sprague-Dawley, po, rat plasma, P.O. mycelia extract 2.381 g/kg BW (equivalent to 50 mg/kg erinacine A)
[16] = 0–4 h after oral mycelia extract 2.381 g/kg BW
[17] = collected for 24 h, comparison with ref 22
[18] = unchanged erinacine A, cumulative
[19] = oral mycelia powder equivalent to 50 mg/kg BW erinacine S

Compound: CC(C)C1=C2C3=CC=C(C=O)C[C@H](O[C@@H]4OC[C@@H](O)[C@H](O)[C@H]4O)[C@]3(C)CC[C@@]2(C)CC1 [erinacine A]
- fraction unbound at 4 h, 200 ng/mL ([1]; diluted (4×) brain homogenate, brain homogenate, highest, read-out: Binding with the brain (% bound) (converted)): 0.711
- fraction unbound at 4 h, 200 ng/mL ([1]; diluted (4×) stomach homogenate, stomach homogenate, lowest, read-out: Binding with the stomach (% bound) (converted)): 0.883
- Unbound brain-to-plasma concentration ratio [2]: close to unity
- Percent free in plasma (rat plasma; 200 ng/mL, 37 °C, 4 h equilibrium dialysis, n = 3): 84.00 ± 2.01%
- Nonspecific binding with the plasma or tissues (rat plasma; 37 °C up to 4 h, preliminary study, data not shown): negligible
- Levels of acute inflammatory cytokines and ischemia-injury-induced neuronal cell death [3]: significantly reduced
- Tmax ([4]; brain, oral mycelia extract 2.381 g/kg BW, read-out: Time of peak concentration in brain): 8 h
- concentration at 4 h ([4]; heart, 4 h after oral mycelia extract 2.381 g/kg BW, read-out: Concentration in heart): 1110 ± 264 ng/g
- concentration at 4 h ([4]; kidney, 4 h after oral mycelia extract 2.381 g/kg BW, read-out: Concentration in kidney): 1280 ± 438 ng/g
- concentration at 4 h ([4]; large intestine, 4 h after oral mycelia extract 2.381 g/kg BW, read-out: Concentration in large intestine): 726 ± 336 ng/g
- concentration at 4 h ([4]; liver, 4 h after oral mycelia extract 2.381 g/kg BW, read-out: Concentration in liver): 2830 ± 641 ng/g
- concentration at 4 h ([4]; lung, 4 h after oral mycelia extract 2.381 g/kg BW, read-out: Concentration in lung): 1180 ± 339 ng/g
- concentration at 4 h ([4]; small intestine, 4 h after oral mycelia extract 2.381 g/kg BW, read-out: Concentration in small intestine): 25400 ± 20400 ng/g
- concentration at 4 h ([4]; stomach, 4 h after oral mycelia extract 2.381 g/kg BW (50 mg/kg erinacine A), read-out: Concentration in stomach): 56500 ± 27600 ng/g
- Tmax ([4]; oral mycelia extract 2.381 g/kg BW, read-out: Time of peak concentration in stomach, small intestine, large intestine, liver, heart, lung and kidney): 4 h
- Maximum concentration in brain ([4]; eight hours after oral mycelia extract 2.381 g/kg BW): 0.205 ± 0.079 µg/g
- Detectability in tissues at the end of 24 h ([4]; oral mycelia extract 2.381 g/kg BW): still detectable in GI tract, heart, and liver
- Blood-brain barrier penetration ([4]; rats, oral mycelia extract): can penetrate the blood-brain barrier of rats by the means of passive diffusion
- Toxicity signs [5]: no toxicity signs were observed
- Stability in plasma and tissues [6]: no degradation was observed
- Reduction of insoluble β amyloid and C-terminal fragment of amyloid precursor protein [7]: could reduce
- Nerve growth factor (NGF) stimulation [8]: stimulated nerve growth factor (NGF) in vitro
- AUC [9, 14]: 3120 ng·h/mL
- Cmax [9, 14]: 4530 ± 3420 ng/mL
- half-life [9, 14]: 0.0728 ± 0.0758 h
- Tmax ([9]; male, Sprague-Dawley, po, rat plasma, P.O. H. erinaceus mycelia extract 2.381 g/kg BW (equivalent to 50 mg/kg BW erinacine A), n = 6): 6 h
- AUC [9, 15]: 7620 ng·h/mL
- Cmax [9, 15]: 1400 ± 1140 ng/mL
- half-life [9, 15]: 8.19 ± 1.86 h
- concentration at 90 min ([9]; male, Sprague-Dawley, rat, plasma, 2.381 g/kg, oral, at 90 min, read-out: Plasma concentration, first peak): 640 ng/mL
- concentration at 150 min ([9]; male, Sprague-Dawley, rat, plasma, 2.381 g/kg, oral, at 150 min, read-out: Plasma concentration, second peak): 735 ng/mL
- concentration at 360 min ([9]; male, Sprague-Dawley, rat, plasma, 2.381 g/kg, oral, at 360 min, read-out: Plasma concentration, third peak): 1250 ng/mL
- bioavailability ([9]; male, Sprague-Dawley, rat, plasma, rats, [(AUCpo × Doseiv)/(AUCiv × Dosepo)] × 100%, po 50 mg/kg equivalent, iv 5 mg/kg, read-out: Absolute Bioavailability): 24.4%
- Earliest detection in plasma after oral administration ([9]; oral mycelia powder equivalent to 50 mg/kg BW erinacine A): 1 min
- Growth of DLD-1 xenografts (DLD-1 xenografts): inhibited
- NGF content in hippocampus and locus coeruleus [10]: increased NGF content
- Feces Concentration [11, 16]: 1.533 ± 2.625 µg/g
- Urine Concentration [11, 16]: 0.248 µg/mL and 0.248 ± 0.210 µg/mL
- Feces Concentration ([11]; 4–8 h): 81.853 ± 99.919 µg/g
- Urine Concentration ([11]; 4–8 h): 0.118 ± 0.103 µg/mL
- Feces Concentration ([11]; 8–12 h): 271.237 µg/g and 271.237 ± 404.357 µg/g
- Urine Concentration ([11]; 8–12 h): 0.059 ± 0.043 µg/mL
- Feces Concentration ([11]; 12–24 h): 122.824 ± 198.611 µg/g
- Urine Concentration ([11]; 12–24 h): 0.055 ± 0.066 µg/mL
- Feces Concentration ([11]; 24–36 h): 4.475 ± 6.477 µg/g
- Urine Concentration ([11]; 24–36 h): 0.021 ± 0.037 µg/mL
- Feces Concentration ([11]; 36–48 h): 0.062 ± 0.099 µg/g
- Urine Concentration ([11]; 36–48 h): 0.016 ± 0.018 µg/mL
- Total amount of unchanged compound in feces relative to erinacine S [11, 17]: more than 20 times
- Total amount of unchanged compound in urine relative to erinacine S [11, 17]: > 2 times
- Cumulative fecal excretion, % of administered dose ([11]; unchanged erinacine A): 2.823%
- Cumulative urinary excretion, % of administered dose ([11]; unchanged erinacine A): 0.017%
- Total Amount excreted in feces [11, 18]: 428.379 ± 368.502 µg
- Total Amount excreted in urine [11, 18]: 2.604 ± 2.149 µg
- Proliferation of DLD-1 cells [12]: inhibited the proliferation

Compound: CC(C)C1=C2[C@H]3CCC4=C(O)C(=O)[C@@]5(O)CO[C@H]6O[C@@H]([C@@H]4[C@]65O)[C@]3(C)CC[C@@]2(C)CC1 [erinacine S]
- Reduction of insoluble β amyloid and C-terminal fragment of amyloid precursor protein [7]: not
- Maximum plasma concentration [13, 19]: 0.73 µg/mL
- Time to reach maximum plasma concentration [13, 19]: 270.00 min
- Absolute bioavailability [13]: 15.13%
